This is an account of results in PubChem BioAssay (NCI).

Common to all, as to assay: inhibition of tumour cell growth, NCI panel, 48 h
The subject of test [1] is CAKI-1 renal.
Test [2] relates to RXF 393 renal.
For test [3], the system named is LOX IMVI melanoma.
Test [4] concerns CCRF-CEM leukemia.
Test [5] relates to NCI/ADR-RES ovarian.
For test [6], the system named is HCT-15 colon.
The test system of test [7] is T-47D breast.
For test [8], the system named is SK-MEL-2 melanoma.
For test [9], the system named is TK-10 renal.
Test [10] deals with MDA-MB-231 breast.
Test [11] deals with HOP-92 NSCLC.
Test [12] relates to ACHN renal.
The test system of test [13] is SF-539 CNS.
In test [14] the test system is OVCAR-8 ovarian.
Test [15] deals with EKVX NSCLC.
The test system of test [16] is K-562 leukemia.
The test system of test [17] is UO-31 renal.
Test [18] concerns SK-OV-3 ovarian.
Test [19] deals with OVCAR-5 ovarian.
Test [20] deals with OVCAR-3 ovarian.

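Growth conditions: 96-well plates. Treatment: test compound, 48 hours, 5 concentrations. Analysis: linear interpolation between bracketing concentrations; unreached endpoints set to highest concentration. The concentration for full growth arrest is given as TGI.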

In the case of `O=C1C(=O)N(C2CCCCC2)C(=S)N1C1CCCCC1`, the TGI in test [1], in [2], in test [3], in test [4], in test [5] and in [6] was more than 100 µM in each case. The TGI in test [7], in test [8], in test [9], in [10], in [11] and in test [12] was more than 100 µM throughout. Moreover, the TGI in test [13], in [14], in [15], in test [16], in [17] and in [18] was more than 100 µM in each case. For the same compound, in test [19], the TGI is more than 100 µM.
`Cn1c(COC(=O)NC2CCCCC2)c(COC(=O)NC2CCCCC2)c2ccc3cc(Cl)c(Cl)cc3c21`: the TGI in [1] is 10.4 µM; in test [20], 29.9 µM; in [2], 21.4 µM; in test [3], 30.6 µM; in test [4], 11.3 µM; in test [5] it was more than 100 µM. In addition, the TGI in test [6] turned out to be 24.7 µM; in test [7] it was 22.4 µM; in test [8], 28.5 µM; in [9], 30.6 µM; in test [10] it was 22.1 µM; in test [11], 19.5 µM. Moreover, the TGI in test [12] was 32.3 µM; in [13], 42.1 µM; in test [14], more than 100 µM; in test [15], more than 100 µM; in test [16], 15.7 µM; in test [17], 66.7 µM. The TGI is more than 100 µM in test [18] and 34.5 µM in [19].
As for `NC(N)=NC(N)=Nc1c(F)c(F)c(F)c(F)c1F`, the TGI in [1], in test [20], in [2], in test [5], in [6] and in test [7] was more than 100 µM in each case. Also, the TGI in [8], in test [9], in test [10], in test [11], in [12] and in test [13] was more than 100 µM each time. The TGI in test [14], in [15], in test [16], in test [17], in test [18] and in test [19] was more than 100 µM each time.
For `CC(C)(C)OC(=O)CN1CCNCCN(CC(=O)OC(C)(C)C)CC1`, the TGI in test [1], in test [20], in [3], in test [4], in test [5] and in test [6] was more than 100 µM in each case. For the same compound, the TGI in test [7], in [8], in test [9], in test [10], in test [11] and in test [12] was more than 100 µM throughout. Moreover, the TGI in test [13], in [14], in [15], in [16], in test [17] and in test [18] was more than 100 µM throughout. Moreover, the TGI in test [19] is more than 100 µM.
On to `COC1OC(COC(=O)NCCCCC(=O)C(F)(F)F)C(O)C(O)C1O` (configuration not stated), for which the TGI in test [1], in test [20], in test [2], in [3], in test [4] and in test [5] was more than 100 µM each time. In addition, the TGI in test [6], in test [7], in test [8], in test [9], in [10] and in [11] was more than 100 µM in each case. Further, the TGI in test [12], in test [13], in test [16], in [17], in [18] and in test [19] was more than 100 µM in each case.
Turning to `COc1cc(/C=C/C2=NN(c3cccc(S(=O)(=O)O)c3)C3(C2)C(Cl)C(=O)N3c2nc3ccccc3s2)ccc1O` (configuration not stated), the TGI in test [1] was 33 µM; in test [2], more than 100 µM; in [3], 27.5 µM; in test [4], 42.2 µM; in test [5], 99.4 µM; in test [6], 37.4 µM. Also, the TGI in test [7] was 26.4 µM; in test [8], more than 100 µM; in test [9] it was 28.2 µM; in [10], 47.1 µM; in test [11], 29.7 µM; in test [12], 30.9 µM. Also, the TGI in [13] turned out to be 46 µM; in [14] it was 40.8 µM; in test [15] it was 42.3 µM; in [16], 61.9 µM; in [17], 33.6 µM; in test [19], 37.9 µM.
Regarding `COc1cc2c(c(OC)c1OC)C(=O)[C@H]1OC(=O)N[C@@H]21`, the TGI in [1], in test [20], in [2], in test [3], in test [4] and in test [5] was more than 100 µM throughout. Further, the TGI in [6], in test [7], in [8], in test [9], in test [10] and in test [11] was more than 100 µM in each case. The TGI in test [12], in [13], in [14], in test [16], in test [17] and in [18] was more than 100 µM throughout. For the same compound, in [19], the TGI is more than 100 µM.
In the case of `CN(C)Cc1cc(N=Nc2ccccc2Cl)cc(CN(C)C)c1O`, the TGI in test [1] was more than 100 µM; in test [20], more than 100 µM; in test [2] it was 88.3 µM; in test [3], 38.7 µM; in [4], 76.7 µM; in test [5], more than 100 µM. The TGI in test [6], in [7], in [9], in test [10], in test [11] and in test [12] was more than 100 µM throughout. Besides, the TGI in test [13], in test [14], in test [15], in [16], in test [17] and in [19] was more than 100 µM in each case.
`Cc1cc(C)c(C)c(-n2[nH]c(=O)n(C)c2=O)c1C`: the TGI in [1], in test [20], in [3], in test [4], in test [5] and in test [6] was more than 100 µM throughout. Further, the TGI in test [7], in test [8], in [9], in [10], in test [11] and in test [12] was more than 100 µM in each case. The TGI in test [13], in [14], in [15], in test [16], in [17] and in test [18] was more than 100 µM throughout. The compound also registered a TGI in test [19] of more than 100 µM.
Consider `N#Cc1ccc(OCc2ccc3nc(-c4ccccc4)c(Cl)nc3c2)cc1`, for which the TGI in test [1], in test [20], in test [3], in test [4], in test [5] and in [6] was more than 100 µM each time. The TGI in test [7], in [8], in test [9], in test [10], in [11] and in test [12] was more than 100 µM in each case. Further, the TGI in test [13], in test [14], in test [15], in test [17] and in test [19] was more than 100 µM each time.
With `O=C1C=CC(=O)c2c(O)c(N[C@@H](Cc3ccccc3)C(=O)OCc3ccccc3)c(Cl)c(O)c21`, the TGI in test [1] is more than 10 µM; in test [20], 7.15 µM; in test [2] it was more than 10 µM; in test [3], 7.11 µM; in test [4], more than 10 µM; in test [5] it was 5.62 µM. Moreover, the TGI was more than 10 µM in test [6]; more than 10 µM in test [7]; more than 10 µM in test [8]; more than 10 µM in test [9]; 8.43 µM in [10]; more than 10 µM in test [11]. Also, the TGI was more than 10 µM in test [12]; 8.86 µM in test [13]; more than 10 µM in test [14]; more than 10 µM in [15]; more than 10 µM in test [18]; more than 10 µM in test [19].
Take `O=C1CCC[C@H]2O[C@@H](COCc3ccccc3)C[C@@H]12`: the TGI in test [1], in test [20], in [4], in test [5], in test [6] and in test [7] was more than 100 µM each time. The TGI in [8], in [9], in [10], in test [11], in test [12] and in [13] was more than 100 µM in each case. Besides, the TGI in test [14], in test [16], in test [17], in test [18] and in test [19] was more than 100 µM in each case.
Consider `NCCCc1ccc2oc3ccccc3c2c1`, for which the TGI came to 29.7 µM in test [1]; 31.5 µM in [20]; 32.4 µM in [2]; 39.9 µM in test [3]; 32.6 µM in test [4]; 46.3 µM in test [5]. Besides, the TGI in [6] turned out to be 36.4 µM; in test [7], 33.7 µM; in [8], 38.2 µM; in [9] it was 30.4 µM; in test [10], 33 µM; in test [11], 43 µM. Moreover, the TGI stood at 32.1 µM in [12]; 36.9 µM in [13]; 57 µM in test [14]; 69.4 µM in test [16]; 29.6 µM in test [17]; 31.3 µM in [18]. Further, the TGI in test [19] was 26.2 µM.
`Cc1ccc(-c2n[nH]c(=O)[nH]2)cc1`: the TGI in [1], in test [20], in [2], in test [3], in [4] and in test [5] was more than 100 µM throughout. Also, the TGI in test [6] was more than 100 µM; in test [7], more than 46.4 µM; in [8] it was more than 100 µM; in test [9] it was more than 100 µM; in test [10], more than 100 µM; in [11], more than 46.4 µM. Further, the TGI in test [12], in test [13], in test [14], in test [15], in [16] and in test [17] was more than 100 µM in each case. The TGI in [19] is more than 100 µM.
As for `Nc1nnc(-c2ccco2)c(-c2ccco2)n1`, the TGI in [1], in test [20], in [2], in test [4], in test [5] and in test [6] was more than 100 µM in each case. Further, the TGI in test [7], in test [8], in [9], in test [10], in [11] and in test [12] was more than 100 µM each time. Also, the TGI in test [13], in [14], in [15], in test [16], in test [17] and in test [18] was more than 100 µM in each case. In test [19], this compound had a TGI of more than 100 µM.
